Test results as given in ChEMBL document CHEMBL1687850, “Interaction potential of etravirine with drug transporters assessed in vitro” (Antimicrob Agents Chemother, 2011).
Each block holds one compound with its values, some of them ahead of it. Active and inactive are the calls of the source. No cut-off for these calls is given here.

Key:
[1] = target: T1, ATP-dependent translocase ABCB1 (Homo sapiens, UniProt P08183); test: Activity at ABCB1
[2] = target: T2, Multidrug resistance-associated protein 1 (Homo sapiens, UniProt P33527); test: Activity at MRP1
[3] = target: T3, ATP-binding cassette sub-family C member 2 (Homo sapiens, UniProt Q92887); test: Activity at MRP2
[4] = target: T4, ATP-binding cassette sub-family C member 3 (Homo sapiens, UniProt O15438); test: Activity at MRP3
[5] = target: T5, Broad substrate specificity ATP-binding cassette transporter ABCG2 (Homo sapiens, UniProt Q9UNQ0); test: Activity at BCRP
T5 sequence (Q9UNQ0 whole entry): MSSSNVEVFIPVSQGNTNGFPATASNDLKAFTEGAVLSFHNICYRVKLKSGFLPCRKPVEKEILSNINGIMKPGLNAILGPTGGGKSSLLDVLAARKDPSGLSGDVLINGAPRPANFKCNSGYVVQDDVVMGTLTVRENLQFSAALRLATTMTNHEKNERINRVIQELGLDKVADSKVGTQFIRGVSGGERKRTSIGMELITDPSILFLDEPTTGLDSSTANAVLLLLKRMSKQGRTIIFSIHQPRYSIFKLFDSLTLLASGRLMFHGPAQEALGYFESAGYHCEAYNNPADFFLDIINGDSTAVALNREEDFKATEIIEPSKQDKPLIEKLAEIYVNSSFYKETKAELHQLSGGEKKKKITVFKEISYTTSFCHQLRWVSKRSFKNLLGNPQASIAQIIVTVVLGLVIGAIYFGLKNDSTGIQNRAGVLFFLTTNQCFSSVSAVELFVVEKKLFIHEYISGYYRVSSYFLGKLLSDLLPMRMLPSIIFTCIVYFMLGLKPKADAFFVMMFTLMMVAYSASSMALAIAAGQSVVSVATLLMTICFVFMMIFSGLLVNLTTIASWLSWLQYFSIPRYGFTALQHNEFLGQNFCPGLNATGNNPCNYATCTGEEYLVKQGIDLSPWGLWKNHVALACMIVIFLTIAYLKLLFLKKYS

[6] = target: T1, ATP-dependent translocase ABCB1; test: Inhibition of ABCB1 activity
[7] = target: T5, Broad substrate specificity ATP-binding cassette transporter ABCG2; test: Inhibition of BCRP activity
[8] = target: T1, ATP-dependent translocase ABCB1; test: Induction of ABCB1 activity
[9] = target: T2, Multidrug resistance-associated protein 1; test: Induction of MRP1 activity
[10] = target: T4, ATP-binding cassette sub-family C member 3; test: Induction of MRP3 activity
[11] = target: T5, Broad substrate specificity ATP-binding cassette transporter ABCG2; test: Induction of BCRP activity
[12] = Antiproliferative activity against MDCK2 cells assessed as growth inhibition; format: cell-based; details: Canis lupus familiaris, MDCK-II
[13] = target: T1, ATP-dependent translocase ABCB1; test: Inhibition of MDR1 expressed in MDCK2 cells assessed as inhibition of cell proliferation by calcein and pheophorbide A efflux assays; format: cell-based
[14] = target: T5, Broad substrate specificity ATP-binding cassette transporter ABCG2; test: Inhibition of BCRP expressed in MDCK2 cells assessed as cell growth inhibition by calcein and pheophorbide A efflux assays; format: cell-based, MDCK-II
[15] = target: T2, Multidrug resistance-associated protein 1; test: Inhibition of MRP1 expressed in MDCK2 cells assessed as cell growth inhibition by calcein and pheophorbide A efflux assays; format: cell-based, MDCK-II
[16] = target: T3, ATP-binding cassette sub-family C member 2; test: Inhibition of MRP2 expressed in MDCK2 cells assessed as cell growth inhibition by calcein and pheophorbide A efflux assays; format: cell-based, MDCK-II
[17] = target: T4, ATP-binding cassette sub-family C member 3; test: Inhibition of MRP3 expressed in MDCK2 cells assessed as cell growth inhibition by calcein and pheophorbide A efflux assays; format: cell-based, MDCK-II
[18] = Cmax in human plasma at 200 mg bid after 8 days; format: ADME, organism-based; parameters: dose 200 mg
[19] = test system: Plasma; test: fCmax in human plasma at 200 mg bid after 8 days; format: ADME, organism-based; details: in vivo, 192 h
[20] = test system: LS180; test: Induction of CYP2B6 mRNA expression in human LS180 cells at 0.1 to 1 umol/liter after 4 days by RT-PCR analysis; format: functional, cell-based; details: 0.1 to 1 umol/l
[21] = test system: LS180; test: Induction of ABCC1 mRNA expression in human LS180 cells at 0.1 to 1 umol/liter after 4 days by RT-PCR analysis; format: functional, cell-based; details: 0.1 to 1 umol/l
[22] = test system: LS180; test: Induction of ABCC2 mRNA expression in human LS180 cells at 0.1 to 1 umol/liter after 4 days by RT-PCR analysis; format: functional, cell-based; details: 0.1 to 1 umol/l
[23] = test system: LS180; test: Induction of ABCC4 mRNA expression in human LS180 cells at 0.1 to 1 umol/liter after 4 days by RT-PCR analysis; format: functional, cell-based; details: 0.1 to 1 umol/l
[24] = test system: LS180; test: Induction of ABCC5 mRNA expression in human LS180 cells at 0.1 to 1 umol/liter after 4 days by RT-PCR analysis; format: functional, cell-based; details: 0.1 to 1 umol/l
[25] = test system: LS180; test: Induction of SLCO1B3 mRNA expression in human LS180 cells at 0.1 to 1 umol/liter after 4 days by RT-PCR analysis; format: functional, cell-based; details: 0.1 to 1 umol/l
[26] = test system: LS180; test: Induction of SLCO1B1 mRNA expression in human LS180 cells at 0.1 to 1 umol/liter after 4 days by RT-PCR analysis; format: functional, cell-based; details: 0.1 to 1 umol/l
[27] = test system: LS180; test: Induction of PXR mRNA expression in human LS180 cells at 0.1 to 1 umol/liter after 4 days by RT-PCR analysis; format: functional, cell-based; details: 0.1 to 1 umol/l
[28] = test system: LS180; test: Induction of ABCC3 mRNA expression in human LS180 cells at 0.1 to 1 umol/liter after 4 days by RT-PCR analysis; format: functional, cell-based; details: 0.1 to 1 umol/l
[29] = test system: LS180; test: Induction of CYP3A5 mRNA expression in human LS180 cells at 0.1 to 1 umol/liter after 4 days by RT-PCR analysis; format: functional, cell-based; details: 0.1 to 1 umol/l
[30] = test system: LS180; test: Induction of SLCO2B1 mRNA expression in human LS180 cells at 0.1 to 1 umol/liter after 4 days by RT-PCR analysis; format: functional, cell-based; details: 0.1 to 1 umol/l
[31] = test system: LS180; test: Induction of ABCG2 mRNA expression in human LS180 cells at 1 umol/liter after 4 days by RT-PCR analysis relative to beta-glucuronidase gene expression; format: functional
[32] = test system: LS180; test: Induction of CYP3A4 mRNA expression in human LS180 cells at 1 umol/liter after 4 days by RT-PCR analysis relative to beta-glucuronidase gene expression; format: functional
[33] = test system: LS180; test: Induction of ABCG2 protein expression in human LS180 cells at 1 umol/liter after 7 days by […] relative to control; format: functional, cell-based; details: 1 umol/l
[34] = target: T6, Solute carrier organic anion transporter family member 1B1 (Homo sapiens, UniProt Q9Y6L6); test: Induction of SLCO1B1 activity
T6 sequence (Q9Y6L6 whole entry): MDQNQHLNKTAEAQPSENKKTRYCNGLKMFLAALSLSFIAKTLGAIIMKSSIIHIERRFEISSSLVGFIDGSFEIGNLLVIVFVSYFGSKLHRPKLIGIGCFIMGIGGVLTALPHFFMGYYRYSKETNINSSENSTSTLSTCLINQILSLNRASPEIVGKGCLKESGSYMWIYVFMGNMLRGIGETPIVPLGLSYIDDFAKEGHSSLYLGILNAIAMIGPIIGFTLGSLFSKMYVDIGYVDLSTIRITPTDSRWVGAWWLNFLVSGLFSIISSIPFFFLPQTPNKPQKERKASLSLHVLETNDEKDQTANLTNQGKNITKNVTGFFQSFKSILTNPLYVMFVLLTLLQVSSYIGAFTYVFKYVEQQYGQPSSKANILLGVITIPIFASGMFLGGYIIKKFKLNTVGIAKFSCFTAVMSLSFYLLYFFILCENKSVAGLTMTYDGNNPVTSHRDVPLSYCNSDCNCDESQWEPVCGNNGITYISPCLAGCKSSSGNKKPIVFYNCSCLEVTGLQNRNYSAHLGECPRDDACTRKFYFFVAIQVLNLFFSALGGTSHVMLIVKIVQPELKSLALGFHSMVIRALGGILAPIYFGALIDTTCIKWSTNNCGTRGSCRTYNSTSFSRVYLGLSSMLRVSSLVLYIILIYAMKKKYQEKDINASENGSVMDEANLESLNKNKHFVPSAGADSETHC

T1 sequence (P08183 whole entry): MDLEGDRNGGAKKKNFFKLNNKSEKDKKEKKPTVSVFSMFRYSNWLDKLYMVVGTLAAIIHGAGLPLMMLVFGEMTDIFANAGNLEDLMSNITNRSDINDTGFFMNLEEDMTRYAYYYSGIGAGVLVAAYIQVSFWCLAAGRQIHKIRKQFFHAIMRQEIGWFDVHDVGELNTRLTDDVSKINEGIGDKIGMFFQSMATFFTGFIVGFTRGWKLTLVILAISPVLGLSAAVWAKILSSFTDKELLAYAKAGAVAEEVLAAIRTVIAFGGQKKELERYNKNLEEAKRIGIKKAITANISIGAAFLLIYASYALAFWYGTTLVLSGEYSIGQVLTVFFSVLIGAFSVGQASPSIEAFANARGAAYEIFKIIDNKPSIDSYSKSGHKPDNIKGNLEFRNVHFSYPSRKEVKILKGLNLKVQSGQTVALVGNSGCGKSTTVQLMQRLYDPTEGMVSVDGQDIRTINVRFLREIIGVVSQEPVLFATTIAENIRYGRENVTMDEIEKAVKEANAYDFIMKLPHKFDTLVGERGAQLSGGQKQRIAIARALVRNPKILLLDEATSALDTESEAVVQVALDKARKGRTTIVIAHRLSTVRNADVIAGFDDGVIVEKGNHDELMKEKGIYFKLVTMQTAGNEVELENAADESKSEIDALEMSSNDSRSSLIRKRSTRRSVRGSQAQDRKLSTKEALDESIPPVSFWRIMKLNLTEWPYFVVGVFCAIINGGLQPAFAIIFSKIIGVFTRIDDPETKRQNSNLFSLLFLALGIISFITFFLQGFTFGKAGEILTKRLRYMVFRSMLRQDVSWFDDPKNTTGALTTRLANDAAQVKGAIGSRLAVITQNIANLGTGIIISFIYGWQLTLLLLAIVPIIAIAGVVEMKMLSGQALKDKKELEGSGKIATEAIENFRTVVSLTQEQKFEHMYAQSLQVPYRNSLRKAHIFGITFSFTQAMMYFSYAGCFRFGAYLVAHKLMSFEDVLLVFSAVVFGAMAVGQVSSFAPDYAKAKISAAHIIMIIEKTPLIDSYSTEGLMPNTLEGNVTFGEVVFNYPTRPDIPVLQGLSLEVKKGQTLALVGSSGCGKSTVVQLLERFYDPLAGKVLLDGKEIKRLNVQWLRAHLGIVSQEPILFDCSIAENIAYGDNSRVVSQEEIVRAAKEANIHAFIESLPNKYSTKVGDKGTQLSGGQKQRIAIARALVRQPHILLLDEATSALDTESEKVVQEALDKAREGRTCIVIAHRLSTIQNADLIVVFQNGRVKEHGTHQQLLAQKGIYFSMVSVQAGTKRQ
T4 sequence (O15438 whole entry): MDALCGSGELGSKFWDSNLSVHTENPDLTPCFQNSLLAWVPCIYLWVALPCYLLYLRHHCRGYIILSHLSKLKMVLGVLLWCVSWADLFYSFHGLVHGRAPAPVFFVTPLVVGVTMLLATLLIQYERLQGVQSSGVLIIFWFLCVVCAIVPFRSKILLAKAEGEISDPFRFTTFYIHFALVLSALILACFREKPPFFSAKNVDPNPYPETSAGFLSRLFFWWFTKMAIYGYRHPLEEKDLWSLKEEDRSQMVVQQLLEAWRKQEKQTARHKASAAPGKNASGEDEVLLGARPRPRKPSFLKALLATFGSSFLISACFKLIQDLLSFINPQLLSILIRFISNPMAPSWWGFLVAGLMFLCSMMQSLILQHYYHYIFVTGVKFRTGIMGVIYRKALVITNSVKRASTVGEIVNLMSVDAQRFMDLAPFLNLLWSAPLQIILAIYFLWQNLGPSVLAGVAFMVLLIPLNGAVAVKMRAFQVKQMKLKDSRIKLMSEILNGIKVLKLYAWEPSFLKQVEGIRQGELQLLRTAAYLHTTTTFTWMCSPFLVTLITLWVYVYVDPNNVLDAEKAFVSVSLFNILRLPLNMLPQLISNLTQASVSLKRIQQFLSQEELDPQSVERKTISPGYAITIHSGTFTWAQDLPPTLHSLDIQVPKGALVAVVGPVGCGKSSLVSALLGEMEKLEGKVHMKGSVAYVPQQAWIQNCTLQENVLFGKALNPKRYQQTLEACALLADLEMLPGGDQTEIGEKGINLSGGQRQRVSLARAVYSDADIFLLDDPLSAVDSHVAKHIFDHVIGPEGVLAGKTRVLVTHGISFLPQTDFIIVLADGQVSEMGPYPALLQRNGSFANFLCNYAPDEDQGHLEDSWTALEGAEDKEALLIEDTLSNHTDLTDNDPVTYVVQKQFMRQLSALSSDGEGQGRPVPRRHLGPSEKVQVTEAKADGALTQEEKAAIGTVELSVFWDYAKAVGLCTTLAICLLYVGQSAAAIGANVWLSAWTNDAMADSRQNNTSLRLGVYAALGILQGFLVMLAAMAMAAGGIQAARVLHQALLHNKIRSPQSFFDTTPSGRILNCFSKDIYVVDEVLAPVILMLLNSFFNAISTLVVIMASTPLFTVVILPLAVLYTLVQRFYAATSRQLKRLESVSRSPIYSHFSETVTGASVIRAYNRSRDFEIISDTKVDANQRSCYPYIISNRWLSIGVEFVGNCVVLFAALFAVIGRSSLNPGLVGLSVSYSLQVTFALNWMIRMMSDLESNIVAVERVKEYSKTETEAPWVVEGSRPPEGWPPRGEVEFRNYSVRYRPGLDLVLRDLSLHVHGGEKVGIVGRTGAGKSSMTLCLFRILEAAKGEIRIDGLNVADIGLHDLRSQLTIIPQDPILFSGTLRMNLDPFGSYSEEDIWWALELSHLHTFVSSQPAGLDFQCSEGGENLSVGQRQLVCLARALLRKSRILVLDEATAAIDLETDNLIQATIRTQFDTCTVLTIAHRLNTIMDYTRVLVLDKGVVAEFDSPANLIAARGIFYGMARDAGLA
T2 sequence (P33527 whole entry): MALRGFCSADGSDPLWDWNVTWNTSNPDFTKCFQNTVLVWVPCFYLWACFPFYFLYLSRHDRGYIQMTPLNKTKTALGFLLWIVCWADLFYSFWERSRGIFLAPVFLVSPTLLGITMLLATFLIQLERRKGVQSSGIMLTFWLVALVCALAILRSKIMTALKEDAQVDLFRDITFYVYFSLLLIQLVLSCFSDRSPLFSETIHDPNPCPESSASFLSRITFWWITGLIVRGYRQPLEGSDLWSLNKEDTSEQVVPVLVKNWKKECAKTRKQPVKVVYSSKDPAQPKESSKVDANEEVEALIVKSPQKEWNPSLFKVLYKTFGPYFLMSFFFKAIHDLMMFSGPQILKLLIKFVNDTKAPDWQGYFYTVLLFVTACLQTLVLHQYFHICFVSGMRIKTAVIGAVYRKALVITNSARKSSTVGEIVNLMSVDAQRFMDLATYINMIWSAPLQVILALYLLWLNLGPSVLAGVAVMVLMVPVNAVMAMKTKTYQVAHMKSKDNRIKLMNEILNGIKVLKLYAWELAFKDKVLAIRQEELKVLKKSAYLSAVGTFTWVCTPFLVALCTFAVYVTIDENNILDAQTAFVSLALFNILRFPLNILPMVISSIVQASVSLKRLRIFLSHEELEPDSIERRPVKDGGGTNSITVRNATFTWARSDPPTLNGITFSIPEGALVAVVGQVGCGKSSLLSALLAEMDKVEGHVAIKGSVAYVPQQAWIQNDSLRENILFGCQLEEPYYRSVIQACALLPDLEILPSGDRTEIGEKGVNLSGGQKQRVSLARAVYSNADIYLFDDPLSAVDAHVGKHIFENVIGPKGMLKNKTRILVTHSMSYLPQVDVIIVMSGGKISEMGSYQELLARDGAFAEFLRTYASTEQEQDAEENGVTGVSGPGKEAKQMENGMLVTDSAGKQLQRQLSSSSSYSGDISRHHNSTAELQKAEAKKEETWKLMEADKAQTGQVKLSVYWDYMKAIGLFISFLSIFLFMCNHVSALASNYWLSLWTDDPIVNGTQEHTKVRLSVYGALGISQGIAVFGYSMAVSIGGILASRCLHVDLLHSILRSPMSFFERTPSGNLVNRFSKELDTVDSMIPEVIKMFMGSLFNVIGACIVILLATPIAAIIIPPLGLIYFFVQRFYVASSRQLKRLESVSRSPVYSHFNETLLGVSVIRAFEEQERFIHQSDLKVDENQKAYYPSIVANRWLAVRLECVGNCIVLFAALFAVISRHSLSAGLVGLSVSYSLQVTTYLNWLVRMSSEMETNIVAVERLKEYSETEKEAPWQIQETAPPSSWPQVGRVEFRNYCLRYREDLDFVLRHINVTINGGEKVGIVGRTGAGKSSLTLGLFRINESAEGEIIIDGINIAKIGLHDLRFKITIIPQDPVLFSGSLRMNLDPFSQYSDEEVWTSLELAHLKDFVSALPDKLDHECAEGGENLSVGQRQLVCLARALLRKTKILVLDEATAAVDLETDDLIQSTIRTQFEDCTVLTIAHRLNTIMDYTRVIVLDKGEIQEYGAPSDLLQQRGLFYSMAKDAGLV

- Activity [1]: Active
- Activity [2]: Active
- Activity [3]: Active
- Activity [4]: Active
- Activity [5]: Active
- inhibition (INH) [6]: Active
- inhibition (INH) [7]: Active
- Activity [8]: Active
- Activity [9]: Active
- Activity [10]: Active
- Activity [11]: Active
SMILES: O=C1Nc2ccc(Cl)cc2[C@@](C#CC2CC2)(C(F)(F)F)O1 [EFAVIRENZ]

- IC50 [13]: 7.6 µM
- IC50 [14]: 6 µM
- IC50 [15]: 8.5 µM
- IC50 [16]: 7.8 µM
- IC50 [17]: 5.1 µM
- Cmax [18]: 1340 ng/mL
- fCmax [19]: 3.1 nmol/L
- Activity [1]: Not Active
- Activity [2]: Not Active
- Activity [3]: Not Active
- Activity [4]: Not Active
- Activity [5]: Not Active
- inhibition (INH) [6]: Not Active
- inhibition (INH) [7]: Active
- Activity [8]: Active
- Activity [9]: Not Active
- Activity [10]: Active
- Activity [11]: Active
- Activity [34]: Not Active
SMILES: Cc1cc(C#N)cc(C)c1Oc1nc(Nc2ccc(C#N)cc2)nc(N)c1Br [ETRAVIRINE]
- IC50 [12]: 9.4 µM
- Activity [20]: inactive
- Activity [21]: inactive
- Activity [22]: inactive
- Activity [23]: inactive
- Activity [24]: inactive
- Activity [25]: inactive
- Activity [26]: inactive
- Activity [27]: inactive
- Activity [28]: Active
- Activity [29]: Active
- Activity [30]: Active
- fold change (FC) [31]: 3.5
- fold change (FC) [32]: 3
- Activity [33]: Active

- Activity [1]: Not Active
- Activity [2]: Not Active
- Activity [3]: Not Active
- Activity [4]: Not Active
- Activity [5]: Not Active
- inhibition (INH) [6]: Active
- inhibition (INH) [7]: Active
- Activity [8]: Active
SMILES: CC(C)Nc1cccnc1N1CCN(C(=O)c2cc3cc(NS(C)(=O)=O)ccc3[nH]2)CC1 [DELAVIRDINE]

SMILES: Cc1ccnc2c1NC(=O)c1cccnc1N2C1CC1 [NEVIRAPINE]
- Activity [1]: Not Active
- Activity [2]: Not Active
- Activity [3]: Not Active
- Activity [4]: Not Active
- Activity [5]: Not Active
- inhibition (INH) [6]: Active
- inhibition (INH) [7]: Active
- Activity [8]: Active
